Tested on: HEK 293F cells
Experiment: rAAV-FVIII vector production by PEI-transfected HEK 293F cells with enhancing agents, vector genome titer by Q-PCR
Assay type: cell-based, human
Description: Cell Culture: FreeStyle™ 293F (HEK 293F) cells purchased from Thermo Fisher Scientific (R79007) were cultured in FreeStyle™ F17 (F17) expression medium (Thermo Fisher Scientific, A1383501) supplemented with 1× GlutaMAX™ (Thermo Fisher Scientific, 35050-061) and 1× Antibiotic-antimycotic (Thermo Fisher Scientific, 15240). Cells were cultured in spinner flasks (Corning, 3152 or 3153), shake flask (Corning 431143, or 431145) or bioreactors. For spinner/shake flask, cells were cultured at 37° C. incubator with 170 rpm agitation and a humidified atmosphere of 8% CO2; for bioreactors (Eppendorf, DASGIP Parallel Bioreactor system, glass vessels and single use vessels), cell culture was controlled by programed parameters, (DO 40%, pH 7.2, agitation at 130 rpm, 150 rpm or 170 rpm). Typically, cells were seeded at 0.25-0.5×10^6/mL, subcultured every 2-3 days by adding fresh cell culture medium when cell density reached approximately 2-3×10^6/mL. Cell density and viability were determined using a Vi-cell™ XR cell viability Analyzer (Beckman Coulter).
Plasmids: Three plasmids were used to produce recombinant adeno-associated viral vectors (rAAV): 1) Transgene plasmid containing hFVIII flanked by ITRs, 2) A packaging plasmid containing rep and cap genes, 3) An adenoviral helper plasmid containing adenovirus E2, E4 and VARNA genes. All plasmids were purchased from and manufactured by Aldevron.
Preparation of PEI solutions: Linear polyethylenimine (PEI) “Max” 40 KDa (Polysciences, 24765-2, hydrochloride salt of the linear PEI 25 KDa) was used as transfection reagent. For transfection optimization studies, PEI “Max” was dissolved in 5 mM Tris to make a 0.5 mg/mL solution and the solution was adjusted to different pH, including pH7.0, 7.1, 7.2, 7.3, 7.4, 7.6, 7.8, or 8.0. After several studies, PEI solution at pH 7.1 was selected for all studies if not specified because of the best transfection and rAAV production.
Using enhancing agents in PEI-mediated transfection: The potential transfection enhancing agents evaluated for their effect on transfection and rAAV production were enhancer 1 and 2 in ExpiFectamine™ 293 Transfection Kit (Thermo Fisher Scientific, A14525), P3000 reagent in Lipofectamine® 3000 Transfection Kit (Thermo Fisher Scientific, L3000015), enhancer in Effectene™ Transfection Reagent Kit (Qiagen, 301427). Also studied were a variety of compounds including valproic acid, etoposide, teniposide, siomycin A and vorinostat to test their effectiveness on PEI cell transfection and rAAV production.
HEK 293F cells were grown in F17 medium plus 1× GlutaMAX™ Supplement and 1× Antibiotic-antimycotic in spinner flasks or shake flasks. The day before transfection, cells were seeded at 0.5-2×10^6 cells/mL by adding fresh medium. After 24 hr, cells were transfected at a cell density of 1-4×10^6 cells/mL. Three plasmids for transfection, hFVIII, Rep/cap, Ad2 helper, were used at a molar ratio of 1:1:1, 0.5:1:1 and 1:2:2, and at weight ratio of 0.75:0.75:0.75, 1:1:1 and 1.5:1.5:1.5. The total DNA amount used for transfection was from 0.5 to 4.2 μg per mL of cell culture volume. PEI/DNA complex was prepared with different weight ratios of PEI and DNA, at 1:1, 1.5:1, 2:1, 2.5:1 and 3:1, incubated at room temperature for 1, 5, 10, 15, 20, 25 and 30 minutes, then the DNA/PEI complexes were added to the cell culture. Free PEI (without DNA) from 0.5 to 5.6 μg/mL was added to the cell culture immediately after DNA/PEI complexes. Enhancing agents were added directly to the cells at the time of transfection or 24 hr before transfection or 16-18 hr after transfection. Different amounts of enhancing agents were studied. Samples, including cells and cell culture media, were taken at 48 and 72 hr post transfection for cell count and cell viability and cell culture was harvested at 72 hr post transfection. […]

CCCC(CCC)C(=O)O [valproic acid]
rAAV vector production, fold higher than in the absence of valproic acid (2 mM at transfection, spinner flask, 1.2 μg/mL DNA, PEI/DNA 2:1, 1.5 μg/mL free PEI, FIG. 7): 10 fold | AAV vector production at increased valproic acid concentrations (1L bioreactor culture, 4 mM or higher, such as 5-8 mM, FIG. 8): improved | AAV vector production, fold higher compared with 2 mM of valproic acid (>4 mM (up to 8 mM) at transfection, 1 L bioreactor, PEI/DNA 2.5, FIG. 8): 1.2-1.8 fold | effect on rAAV productivity (compound screen) (added at transfection, PEI-mediated transfection): significantly increased | rAAV-FVIII vector titer, fold increase compared to that without any enhancers (optimized PEI-mediated transfection, serum-free suspension culture, 0.25-10 mM tested, FIG. 7): around 10 fold | rAAV productivity level compared with enhancer 1 and 2 (optimized PEI-mediated transfection, serum-free suspension culture, FIG. 7): same rAAV productivity level or higher | rAAV vector productivity, fold higher than the currently reported production protocol using similar technologies (used alone in the optimized PEI-based transfection method): about 10 fold

From patent US12404526B2, “Enhancing agents for improved cell transfection and/or rAAV vector production” (priority 2017, dated 2025)
